# According to patent US6589758B1, “Crystal of a kinase-ligand complex and methods of use” (priority 2000, dated 2003):
# pIC50: −log10 of the molar value. Read-outs that look alike come from different tables or passages of the source.
# How the values were obtained:
# [1] = tested on: TCR-induced IL-2 secretion from hPBL T-cells; test: T-cell activation: TCR-induced IL-2 secretion from hPBL T-cells (ELISA); format: cell-based; settings: anti-CD3/anti-CD28 stimulation, 20 hours, FIG. 7B, read-out: IC50 inhibition of IL-2 production in human T-cell cultures
# Protocol: T-cell activation. Whole blood was obtained from normal donors and human peripheral blood lymphocytes (hPBL) were isolated by ficol-hypaque density centrifugation. T-cells were then purified from the hPBL by negative selection using an R&D column following the manufacturers directions (R&D Systems, Minneapolis, Minn.). A 96-well flat-bottomed plate was coated with 10 μg/ml of goat anti-mouse (GAM)-IgG1 (Caltag, Burlingame, Calif.) in PBS overnight at 4C. The GAM-coated plate was flicked out and anti-CD3 mAb (UCHT-1, Coulter/Immunotech, Miami, Fla.) is added at 0.2 μg/ml in AIMV medium (Gibco, Grand Island, N.Y.) for 3 hr. at 37C. Purified T-cells were pre-incubated at 1×10^5/well in AIM V with or without compound for 30 minutes then transferred to the anti-CD3 capture plate. Finally, anti-CD28 (Pharmingen, San Diego, Calif.) in AIMV (150 ng/ml final) was added to each well. Cells were incubated for 20 hours at 37C in 5% CO2 then supernatants were tested by ELISA for cytokine levels (Endogen, Woburn, Mass.).
# ZAP-70 = molecular target: T1, ZAP-70 (Homo sapiens, UniProt P43403); settings: reported in ref [51]; read-out: IC50 against ZAP-70; cited from earlier work
# T1 sequence (P43403 1-619): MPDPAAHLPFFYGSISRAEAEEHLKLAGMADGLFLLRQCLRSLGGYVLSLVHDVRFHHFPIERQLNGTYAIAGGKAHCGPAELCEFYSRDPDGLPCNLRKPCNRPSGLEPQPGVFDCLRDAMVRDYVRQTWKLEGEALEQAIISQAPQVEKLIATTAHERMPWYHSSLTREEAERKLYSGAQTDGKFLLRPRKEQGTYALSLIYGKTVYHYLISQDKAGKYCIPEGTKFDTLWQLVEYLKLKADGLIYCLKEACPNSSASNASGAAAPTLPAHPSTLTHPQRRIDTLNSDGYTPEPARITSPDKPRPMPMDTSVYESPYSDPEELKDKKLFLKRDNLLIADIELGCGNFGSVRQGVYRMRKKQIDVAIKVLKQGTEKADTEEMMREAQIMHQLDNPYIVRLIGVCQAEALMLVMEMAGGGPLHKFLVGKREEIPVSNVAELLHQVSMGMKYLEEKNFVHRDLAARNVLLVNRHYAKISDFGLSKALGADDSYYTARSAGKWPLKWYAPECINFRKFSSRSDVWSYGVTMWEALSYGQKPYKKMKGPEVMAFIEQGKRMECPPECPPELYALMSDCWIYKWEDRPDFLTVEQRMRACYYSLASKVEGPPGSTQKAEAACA
# [2] = tested on: TCR-induced phosphotyrosine incorporation into TCR p23 ζ-chain and a 70 kDa protein, Jurkat cells; format: cell-based; settings: FIG. 7C
# Protocol: Phosphotyrosine western blotting. […] Cells were then transferred to 37° C. water bath for 1 minute. Stimulation was stopped by the addition of 5 volumes of cold PBS containing 200 μM sodium orthovanadate. Cells were spun down and lysed in 150 mM Tris/10 mM HEPES buffer, pH 7.3, containing 1% Triton X-100 and Complete protease inhibitor cocktail (Boehringer Mannheim, Germany) for 30 minutes on ice. […] Blots were probed with anti-phosphotyrosine (4G10, Upstate Biotechnology, Inc., Saranac Lake, N.Y.) and developed using ECL-plus following the manufacturers directions (Amersham, Arlington Heights, Ill.).
# Lck = Lck (Homo sapiens, UniProt P06239); settings: reported in ref [51]; cited from earlier work
# Chain of Lck (P06239 whole entry, species assumed): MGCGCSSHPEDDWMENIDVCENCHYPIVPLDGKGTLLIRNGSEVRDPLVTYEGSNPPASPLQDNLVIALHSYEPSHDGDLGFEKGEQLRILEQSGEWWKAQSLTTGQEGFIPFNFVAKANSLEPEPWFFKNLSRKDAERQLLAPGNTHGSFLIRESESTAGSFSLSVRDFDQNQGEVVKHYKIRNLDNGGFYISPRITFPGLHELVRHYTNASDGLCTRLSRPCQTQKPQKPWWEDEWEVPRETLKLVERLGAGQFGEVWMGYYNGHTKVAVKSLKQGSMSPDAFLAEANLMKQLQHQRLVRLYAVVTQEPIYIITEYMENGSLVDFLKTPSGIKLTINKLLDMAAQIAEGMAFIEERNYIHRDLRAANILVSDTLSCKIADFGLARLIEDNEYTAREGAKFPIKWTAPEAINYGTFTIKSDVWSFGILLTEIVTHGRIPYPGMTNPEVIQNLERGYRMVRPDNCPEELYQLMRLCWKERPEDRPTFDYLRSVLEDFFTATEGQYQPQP
compound,measurement,setting,value
CC(C)(C)n1nc(-c2ccc(Cl)cc2)c2c(N)ncnc21 [PP2],pIC50,[1],6.22
same,pIC50,ZAP-70,≤ 4.00
same,inhibition of Lck-dependent phosphorylation of the TCR ζ-chain (p23),[2],dose-dependent inhibition
same,inhibition of phosphorylation of a 70 kD protein (likely ZAP-70),[2],inhibited
CN[C@@H]1C[C@H]2O[C@@](C)([C@@H]1OC)n1c3ccccc3c3c4c(c5c6ccccc6n2c5c31)C(=O)NC4 [staurosporine],pIC50,"[1]; Homo sapiens, T-cell",7.22
Cc1ccc(-c2nn(C(C)(C)C)c3ncnc(N)c23)cc1 [PP1],inhibitory activity against Lck compared with PP2,Lck,approximately the same inhibitory activity
